Reference: ChEMBL document CHEMBL1141267, “Side-chain truncation of apicularen A by olefin cross-metathesis with ethylene” (J Nat Prod, 2007)
Active and inactive are the calls of the source. No cut-off for these calls is given here.

Key:
L929 = test: Cytotoxicity against mouse L929 cells; type: functional, cell-based
[1] = Inhibition of tobacco hornworm V-ATPase; set-up: species or system Manduca sexta

| Structure (SMILES) | Activity (L929) | IC50 [1] [nM] |
| --- | --- | --- |
| C=CC[C@H]1C[C@H]2C[C@H](O)C[C@H](Cc3cccc(O)c3C(=O)O1)O2 | inactive | – |
| CC/C=C\C=C/C(=O)N/C=C/C[C@H]1C[C@H]2C[C@H](O)C[C@H](Cc3cccc(O)c3C(=O)O1)O2 [APICULAREN A] | – | 20 |
